Values of other authors as cited in patent US8492081B2, “Aldehyde-fixed, dried platelets with covalently attached exogenous active agent and method of making thereof” (The University of North Carolina at Chapel Hill, priority 2003, dated 2013).

Experiments:
Punta Toro virus = conditions: free ribavirin, not loaded on platelets; previously shown
[1] = Crotty et al., 2002

NC(=O)c1ncn([C@@H]2O[C@H](CO)[C@@H](O)[C@H]2O)n1 [ribavirin]
concentration range shown to inhibit Punta Toro virus replication in vitro (Punta Toro virus): 4-10 micrograms per ml | concentration range that exhibits antiviral activity in tissue culture [1]: 10 to 100 µM
